Values quoted from earlier work as cited in patent US7160580B2, “Organic acids incorporated edible antimicrobial films” (The Board of Trustees for the University of Arkansas, priority 2002, dated 2007).
Where “and” joins values, the source holds several entries; their conditions need not be identical. Identical values can stand only once.

Key:
Listeria monocytogens [1] = conditions: 2% acid rinsed catfish fillets stored at 4° C., up to 5 days
E. coli 0157:H7 = conditions: lean beef tissue treated with 1.7% lactic acid, stored at 5° C. for 7 days
Listeria monocytogens [2] = conditions: lean beef tissue treated with 1.7% lactic acid, stored at 5° C. for 7 days
Salmonella montevideo = conditions: citric acid 0.2 and 0.4% in cellulose based edible film; surface or core tissue of tomatoes; assignment of the two values not stated

Row | Compound | log reduction in Listeria monocytogens counts (Listeria monocytogens [1]) | log reduction E. coli 0157:H7 (E. coli 0157:H7) | log reduction Listeria monocytogens (Listeria monocytogens [2]) | log reductions of Salmonella montevideo (Salmonella montevideo)
1 | O=C(O)CC(O)C(=O)O (centres unmarked) [malic acid] | less than one log reduction | – | – | –
2 | CC(O)C(=O)O (centres unmarked) [lactic acid] | less than one log reduction | 0.91 log | 2.03 log | –
3 | O=C(O)CC(O)(CC(=O)O)C(=O)O [citric acid] | less than one log reduction | – | – | 2.18 log and 1.92 log
4 | Cl [hydrochloric acid] | less than one log reduction | – | – | –
5 | O=C(O)C(O)C(O)C(=O)O (centres unmarked) [tartaric acid] | less than one log reduction | – | – | –
